Experiments:
[1] = system: EGFP reporter cells (C2C12 cells); experiment: EGFP-SSA assay: uptake of Cas9 protein/gRNA complex into cells (EGFP positive rate); assay type: cell-based, mouse; conditions: for Compound activity: EGFP positive rate (%): Example 1, compound 250.0 mM, reaction solution 1 (550 mM sodium chloride, 1 mM HEPES, Cas9 protein/gRNA), 30 minutes; for EGFP positive rate (activity) with different (B) salts: Example 3, reaction solutions 3-1 to 3-6: 250 mM GABA, 50 mM HEPES, salt varied, FIG. 7
Text: EGFP-SSA assay: an abbreviation of EGFP-single strand annealing assay. The reporter cassette shown in FIG. 1 is inserted in EGFP reporter cells. In the middle of the EGFP sequence of the cassette, MmDMD-Ex51 sequence is inserted. Since the presence of MmDMD-Ex51 sequence, by which EGFP ORF is divided, EGFP protein is not usually translated. However, when target sequence of MmDMD-Ex51 is cleaved by Cas9 protein/gRNA complex, the upstream region (EG part) and the downstream region (FP part) of EGFP ORF are annealed via a homology area into a single strand, with the result that a full-length EGFP ORF emerges to produce EGFP protein. Based on this principle, the ratio of the number of cells producing EGFP is checked by the EGFP-SSA assay. In this manner, the amount of Cas9 protein/gRNA complex delivered to cells can be predicted.
(§1) Cas9 protein (0.4 μg), tracrRNA (34.18 ng), MmDmd Ex51 crRNA (29.48 ng), a 1 M HEPES buffer (0.05 μL) and a 5 M aqueous sodium chloride solution (5.5 μL) were mixed and diluted with UltraPure DNase/RNase-Free Distilled Water up to a liquid volume of 37.5 μL so as to obtain final concentrations: 8 ng/μL Cas9 protein, 0.68 ng/μL tracrRNA, 0.59 ng/μL MmDmd Ex51 crRNA, 1 mM HEPES, 550 mM sodium chloride, and 250 mM compound. To this solution, a 1000 mM compound solution (12.5 μL) was added and the solution mixture was incubated at normal temperature for 15 minutes.
as §1, with “buffer (2.5” for “buffer (0.05”, “solution (4.85” for “solution (5.5”, “crRNA, 50” for “crRNA, 1”, “HEPES, 485” for “HEPES, 550”, “minutes. Note that, in the cases where the final concentrations of the compound are 0.69 mM, 25 mM, 100 mM, 125 mM, 160 mM, 200 mM and 500 mM, the compound stock solution was diluted with UltraPure DNase/RNase-Free Distilled Water up to concentrations of 2.76 mM, 100 mM, 400 mM, 500 mM, 640 mM, 800 mM and 2000 mM, respectively, and then, added. […]” for “minutes.”
Cas9 protein (2.0 μg), tracrRNA (170.9 ng), MmDmd Ex51 crRNA (147.4 ng), a 1 M HEPES buffer (12.5 μL), a 5 M aqueous sodium chloride solution (18.35 μL) and a 1 M aqueous GABA solution (62.5 μL) were mixed, diluted with UltraPure DNase/RNase-Free Distilled Water up to a liquid volume of 250 μL so as to obtain final concentrations: 8 ng/μL Cas9 protein, 0.68 ng/μL tracrRNA, 0.59 ng/μL MmDmd Ex51 crRNA, 50 mM HEPES, 250 mM GABA and 367 mM sodium chloride, and incubated at normal temperature for 15 minutes. Note that the addition amount of the 5 M aqueous sodium chloride solution was changed to 24.25 μL in the case of 485 mM sodium chloride and the addition amount was changed to 27.5 μL in the case of 550 mM sodium chloride, respectively.

[2] = system: EGFP reporter cells (C2C12 cells); experiment: Number of HOECHST cells detected (cell viability) in the EGFP-SSA assay; conditions: Example 1, formula (2)
Method: To each of the solutions, a complex of gRNA and Cas9 protein was further dissolved. Mouse myoblasts (C2C12 cells) were contacted with each of the solutions in vitro, and target gene cleavage activity and cell viability were evaluated.

[3] = system: C57BL/6J mouse right lower limb gastrocnemius; experiment: DNA mutation introduction efficiency using mRosa26 gRNA (T7E1 assay) after local administration; assay type: in vivo
Method: Cas9 protein (20 μg), mRosa26 gRNA (5 μg), 10×PBS (5 μL) and a 2.0 M aqueous 2′-deoxycytidine solution (6.25 μL) were mixed so as to obtain an aqueous solution having final concentrations of 400 ng/μL Cas9 protein, 100 ng/μL mRosa26 gRNA, 533 mM sodium chloride and 250 mM 2′-deoxycytidine. The concentration of the resultant solution was adjusted to be 533 mM with a 5 M aqueous sodium chloride solution, diluted with UltraPure DNase/RNase-Free Distilled Water up to a liquid volume of 50 μL and incubated at normal temperature for 15 minutes. […] The Cas9 protein herein was subjected to buffer replacement with 250 mM sodium chloride by use of Amicon® Ultra 2 mL Centrifugal Filters and then put in use.
Cas9 protein (40 μg), mRosa26 gRNA (10 μg), 10×PBS (5 μL), and a […] compound stock solution (25 μL) were mixed so as to obtain final concentrations: 800 ng/μL Cas9 protein, 200 ng/μL mRosa26 gRNA, 533 mM sodium chloride and 250 mM compound. […]
To the right lower limb gastrocnemius of each of 9 weeks-old male C57BL/6J mice (CLEA Japan, Inc), administration solution 1 or administration solution 2 and PBS (50 μL) were administered. […] The resultant PCR product was purified by QIAquick PCR purification kit (QIAGEN), treated with T7 Endonuclease I (NEB) and analyzed by Agilent 4200 TapeStation (Agilent). […]
As shown in FIG. 10 and FIG. 11, to find statistical significant difference between GABA and each conditions of the compounds, Dunnett's multiple comparison test using DNA mutation introduction efficiency, Indel (%), and exon skipping efficiency, was carried out. It was determined that if P value is less than 0.05, these is a statistically significant difference. […]
A solution for transduction containing 2′-deoxycytidine as a compound (A3) and sodium chloride as the (B) salt was prepared. […] Administration solution 1 was locally administered to the mouse right lower limb gastrocnemius and the activity to cleave a target gene was evaluated. […]

[4] = system: EGFP reporter cells (C2C12 cells); experiment: EGFP-SSA assay: uptake of Cas9 protein/gRNA complex into cells (EGFP positive rate); assay type: cell-based, mouse; conditions: for Compound activity: EGFP positive rate (%): Example 1, reaction solution 1 (550 mM sodium chloride, 1 mM HEPES, Cas9 protein/gRNA), 30 minutes; for EGFP positive rate: Example 4, compound 250 mM, FIG. 8
[5] = compound 250.0 mM vs 250 mM GABA positive control on the same plate

## Cn1cnc(C[C@H](N)C(=O)O)c1 [1-Methyl-L-histidine]
[1]
  Compound activity: EGFP positive rate (%): 3.54%
[2]; [5]
  Relative ratio to GABA: Number of HOECHST cells: 0.68

## O=C(O)CCC(O)C(=O)O (stereo not drawn) [2-Hydroxyglutaric acid]
[1]
  Compound activity: EGFP positive rate (%): 1.89%
[2]; [5]
  Relative ratio to GABA: Number of HOECHST cells: 0.83

## Nc1ccn([C@H]2C[C@H](O)[C@@H](CO)O2)c(=O)n1 [2′-Deoxycytidine]
[3]; Example 5, administration solution 1: 250 mM 2′-deoxycytidine, sodium chloride 163, 233, 333, 433 or 533 mM, mRosa26 gRNA/Cas9, 50 μL for 3 consecutive days, FIG. 9
  Genome editing (mutation introduction efficiency, indel (%)): Genome editing was confirmed
[4]; compound 100.0 mM
  Compound activity: EGFP positive rate (%): 1.10%
[2]; compound 100.0 mM vs 250 mM GABA positive control on the same plate
  Relative ratio to GABA: Number of HOECHST cells: 1.01

## O=C(O)[C@H](O)[C@@H](O)[C@H](O)[C@H](O)COP(=O)(O)O [6-Phospho-D-gluconic acid]
[1]
  Compound activity: EGFP positive rate (%): 2.61%
[2]; [5]
  Relative ratio to GABA: Number of HOECHST cells: 1.31

## NCCCC(=O)O [GABA, γ-aminobutyric acid, reference compound]
[1]; Example 4, sodium chloride 550 mM, compound 250 mM, FIG. 8
  EGFP positive rate: 1.4%
[4]; compound 200.0 mM
  Compound activity: EGFP positive rate (%): 1.39%
[4]; sodium chloride 150 mM
  EGFP positive rate: less than 1%
[4]; sodium chloride 350 mM
  EGFP positive rate: less than 1%
[2]; compound 200.0 mM vs 250 mM GABA positive control on the same plate
  Relative ratio to GABA: Number of HOECHST cells: 1.00

## O=CC[C@@H](O)[C@H](O)[C@H](O)COP(=O)(O)O [Oxy-D-glucose-6-phosphate, 2-deoxy-D-glucose-6-phosphate]
[1]
  Compound activity: EGFP positive rate (%): 1.38%
[3]; Example 6, administration solution 2: 25 mM or 250 mM 2′-deoxycytidine, 6-phospho-D-gluconic acid, N-carbamyl-L-aspartic acid or 2-deoxy-D-glucose-6-phosphate, 533 mM sodium chloride, 50 μL once, Dunnett's test, FIG. 10
  Genome editing efficiency (indel (%)) compared to 250 mM GABA: statistically significant results compared to GABA
[2]; [5]
  Relative ratio to GABA: Number of HOECHST cells: 1.06

## [Cl-].[Cl-].[Mg+2] [magnesium chloride]
[1]
  EGFP positive rate (activity) with different (B) salts: almost the same activity

## [Cl-].[Na+] [sodium chloride]
[1]
  EGFP positive rate (activity) with different (B) salts: almost the same activity

## O=P(O)(O)O[C@H]1O[C@H](CO)[C@@H](O)[C@H](O)[C@H]1O [α-D-Glucose-1-phosphate]
[1]
  Compound activity: EGFP positive rate (%): 2.52%
[2]; [5]
  Relative ratio to GABA: Number of HOECHST cells: 1.29
